According to PubChem BioAssay AID1845217 (Molecular Pharmacology Branch, DTP, NCI, 2023):
pIC50: −log10 of the molar value.

System: VA-ES-BJ tumor spheroid viability
Assay: Anticancer human tumor VA-ES-BJ cell line growth inhibition;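 further: spheroids exposed to compounds for seven days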;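 on viability, T/C: percent of DMSO vehicle control viability so 100% = untreated growth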
Settings: spheroids with HUVEC and MSC; for pIC50: curve of first compound; for viability, T/C: stronger effect = lower value; active means viability on the fitted dose curve at most 10% of control; inactive means the rest
Outline: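 Complex tumor spheroids combined malignant cells with endothelial cells and mesenchymal stem cells. DNA-damaging drugs and DNA repair inhibitors were tested alone and in combination, at half-log dilutions down from clinical Cmax (top 10 microM if Cmax unknown), 0.25% DMSO final.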

Cn1ncnc1[C@H]1c2n[nH]c(=O)c3cc(F)cc(c23)N[C@@H]1c1ccc(F)cc1 + Cn1nnc2c(C(N)=O)ncn2c1=O
6.27: pIC50 (second compound 1 µM)
> 8.02: pIC50 (second compound 31.6 µM) | pIC50 (second compound 100 µM)
6.67: pIC50 (second compound 3.16 µM)
7.24: pIC50 (second compound 10 µM)
inactive: viability, T/C (second compound 1 µM, first compound 0.00949 µM) 97.4% | viability, T/C (second compound 1 µM, first compound 0.03 µM) 90.7% | viability, T/C (second compound 1 µM, first compound 0.0949 µM) 81.8% | viability, T/C (second compound 1 µM, first compound 0.3 µM) 68.7% | viability, T/C (second compound 1 µM, first compound 0.949 µM) 33.1% | viability, T/C (second compound 3.16 µM, first compound 0.00949 µM) 94.4% | viability, T/C (second compound 3.16 µM, first compound 0.03 µM) 51.4% | viability, T/C (second compound 3.16 µM, first compound 0.0949 µM) 68.4% | viability, T/C (second compound 3.16 µM, first compound 0.3 µM) 55.3% | viability, T/C (second compound 3.16 µM, first compound 0.949 µM) 25.1% | viability, T/C (second compound 10 µM, first compound 0.00949 µM) 72.3% | viability, T/C (second compound 10 µM, first compound 0.03 µM) 58.8% | viability, T/C (second compound 10 µM, first compound 0.0949 µM) 42.8% | viability, T/C (second compound 10 µM, first compound 0.3 µM) 26.3% | viability, T/C (second compound 10 µM, first compound 0.949 µM) 10.4% | viability, T/C (second compound 31.6 µM, first compound 0.00949 µM) 33% | viability, T/C (second compound 31.6 µM, first compound 0.03 µM) 20.1% | viability, T/C (second compound 31.6 µM, first compound 0.0949 µM) 13.4% | viability, T/C (second compound 100 µM, first compound 0.00949 µM) 12.1%
active: viability, T/C (second compound 1 µM, first compound 3 µM) 7.3% | viability, T/C (second compound 3.16 µM, first compound 3 µM) 7.36% | viability, T/C (second compound 10 µM, first compound 3 µM) 7.26% | viability, T/C (second compound 31.6 µM, first compound 0.3 µM) 10.1% | viability, T/C (second compound 31.6 µM, first compound 0.949 µM) 7.36% | viability, T/C (second compound 31.6 µM, first compound 3 µM) 5.8% | viability, T/C (second compound 100 µM, first compound 0.03 µM) 7.76% | viability, T/C (second compound 100 µM, first compound 0.0949 µM) 7.62% | viability, T/C (second compound 100 µM, first compound 0.3 µM) 7.16% | viability, T/C (second compound 100 µM, first compound 0.949 µM) 6.55% | viability, T/C (second compound 100 µM, first compound 3 µM) 5.96%
